# Values joined by “and” are separate entries in the source; they are usually repeats but may differ in a detail not shown here. Equal values may be shown once.
# Experiment: Effect of temperature on vasopressin formulations: HPLC vasopressin assay and impurities on storage (Example 8)
# Type: physicochemical
# Experimental: To analyze degradation products of vasopressin that can be present in an illustrative formulation of vasopressin, gradient HPLC was performed to separate vasopressin from related peptides and formulation components. TABLE 2 below depicts the results of the experiment detailing the chemical formula, relative retention time (RRT), molar mass, and structure of vasopressin and detected impurities.
# Vasopressin was detected in the eluent using UV absorbance. The concentration of vasopressin in the sample was determined by the external standard method, where the peak area of vasopressin in sample injections was compared to the peak area of vasopressin reference standards in a solution of known concentration. The concentrations of related peptide impurities in the sample were also determined using the external standard method, using the vasopressin reference standard peak area and a unit relative response factor. An impurities marker solution was used to determine the relative retention times of identified related peptides at the time of analysis.
# To test the effect of temperature on the stability of vasopressin formulation, solutions containing 20 units/mL vasopressin and chlorobutanol, adjusted to pH 3.5 with acetic acid, were prepared. One mL of each vasopressin formulations was then filled into 3 cc vials. Each Vasopressin Formulation was stored either inverted or upright for at least three months, up to 24 months, at: (i) 5° C.; (ii) 25° C. and 60% relative humidity; or (iii) 40° C. and 75% humidity, and the amount of vasopressin (U/mL) and % total impurities were measured periodically. TABLES 7-12 below display the results of the experiments at 5° C. The results of the experiments at 25° C. are included in TABLES 13-18. All of the experiments were performed in triplicate. The results of the experiments at 40° C. are included in TABLES 19-24. For each temperature tested, three lots of the vasopressin formulation were stored for 24 months (5° C. and 25° C.) and 3 months (40° C.), and measurements were taken at regular intervals during the testing periods. “NMT” as used in the tables denotes “not more than.”
# Experiments were also conducted on the same samples above over the course of the experiments to measure the amount of individual impurities in the samples, pH of the samples, chlorobutanol content, particulate matter, antimicrobial effectiveness, and bacterial endotoxin levels (TABLES 25-42). (NR=no reading; ND=not determined; UI=unidentified impurity).
# [1] = inverted, 5° C., Initial, listed as AVP
# [2] = inverted, 25° C. and 60% Relative Humidity, 3 months, listed as AVP
# [3] = inverted, 25° C. and 60% Relative Humidity, 6 months, listed as AVP
# [4] = inverted, 25° C. and 60% Relative Humidity, 9 months, listed as AVP
# [5] = inverted, 25° C. and 60% Relative Humidity, 12 months, listed as AVP
# [6] = inverted, 25° C. and 60% Relative Humidity, 24 months, listed as AVP
# [7] = inverted, 25° C. and 60% Relative Humidity, Initial, listed as AVP
# [8] = inverted, 40° C. (75% humidity), 1 month
# [9] = inverted, 40° C. (75% humidity), 2 months
# [10] = inverted, 40° C. (75% humidity), 3 months
# [11] = inverted, 40° C. (75% humidity), Initial
# [12] = upright, 5° C., 1 month, listed as AVP
# [13] = upright, 5° C., 2 months, listed as AVP
# [14] = upright, 5° C., 3 months, listed as AVP
# [15] = upright, 5° C., 6 months, listed as AVP
# [16] = upright, 5° C., 9 months, listed as AVP
# [17] = upright, 5° C., 12 months, listed as AVP
# [18] = upright, 5° C., 18 months, listed as AVP
# [19] = upright, 5° C., 24 months, listed as AVP
# [20] = upright, 5° C., Initial, listed as AVP
# [21] = upright, 25° C. and 60% Relative Humidity, 3 months, listed as AVP
# [22] = upright, 25° C. and 60% Relative Humidity, 6 months, listed as AVP
# [23] = upright, 25° C. and 60% Relative Humidity, 9 months, listed as AVP
# [24] = upright, 25° C. and 60% Relative Humidity, 12 months, listed as AVP
# [25] = upright, 25° C. and 60% Relative Humidity, 18 months, listed as AVP
# [26] = upright, 25° C. and 60% Relative Humidity, 24 months, listed as AVP
# [27] = upright, 25° C. and 60% Relative Humidity, Initial, listed as AVP
smiles,measurement,setting,value
"NC(=O)CC[C@@H]1NC(=O)[C@H](Cc2ccccc2)NC(=O)[C@H](Cc2ccc(O)cc2)NC(=O)[C@@H](N)CSSC[C@@H](C(=O)N2CCC[C@H]2C(=O)N[C@@H](CCCN=C(N)N)C(=O)NCC(N)=O)NC(=O)[C@H](CC(N)=O)NC1=O [Vasopressin, Cyclo (1-6) L-Cysteinyl-L-Tyrosyl-L-Phenylalanyl-L-Glutaminyl-L-Asparaginyl-L-Cysteinyl-L-Prolyl-L-Arginyl-L-Glycinamide]",Related Substances: Acetyl-AVP,"inverted, 5° C., Initial",0.3%
same,Related Substances: Asp5-AVP,"inverted, 5° C., Initial",0.1%
same,Related Substances: SEQ ID NO.: 2,"inverted, 5° C., Initial",0.5% and 0.6%
same,Related Substances: SEQ ID NO.: 4,"inverted, 5° C., Initial",0.6% and 0.5%
same,Related Substances: SEQ ID NO.: 10,"inverted, 5° C., Initial",0.3%
same,Related Substances: UI-0.75-0.78,"inverted, 5° C., Initial",0.2%
same,Related Substances: UI-0.83-0.84,"inverted, 5° C., Initial",0.1%
same,Related Substances: UI-1.02-1.03,"inverted, 5° C., Initial",0.2%
same,Related Substances: UI-1.03,"inverted, 5° C., Initial",0.2%
same,Related Substances: UI-1.85,"inverted, 5° C., Initial",0.2%
same,Related Substances: UI-2.05,"inverted, 5° C., Initial",0.1% and 0.2%
same,Vasopressin (AVP) Assay,"inverted, 5° C., Initial",19.4 U/mL and 19.7 U/mL
same,Total Impurities,[1],2.3% and 2.7% and 2.2%
same,Vasopressin (AVP) Assay,[1],19.4 U/mL and 19.7 U/mL
same,AVP Assay,[2],19.4 U/mL and 19.7 U/mL and 19.6 U/mL
same,Total Impurities,[2],2.4% and 2.5% and 2.6%
same,AVP Assay,[3],19.1 U/mL and 19.3 U/mL and 19.2 U/mL
same,Total Impurities,[3],3.7% and 3.4% and 3.3%
same,AVP Assay,[4],18.8 U/mL and 19 U/mL
same,Total Impurities,[4],4.7% and 4.6%
same,AVP Assay,[5],18.3 U/mL and 18.6 U/mL and 18.7 U/mL
same,Total Impurities,[5],5.9% and 5.6%
same,Total Impurities,"inverted, 25° C. and 60% Relative Humidity, 18 months",9.0%
same,AVP Assay,"inverted, 25° C. and 60% Relative Humidity, 18 months, listed as AVP",17.5 U/mL and 17.6 U/mL and 18 U/mL
same,AVP Assay,[6],17.3 U/mL and 17.6 U/mL and 17.4 U/mL
same,Total Impurities,[6],13.6% and 13.4% and 12.9%
same,AVP Assay,[7],19.8 U/mL and 20.1 U/mL and 19.9 U/mL
same,Total Impurities,[7],1.1% and 1.3% and 1.5%
same,Total Impurities,[8],3.7% and 3.6%
same,Vasopressin Assay,[8],19.1 U/mL and 19.3 U/mL and 19.2 U/mL
same,Total Impurities,[9],7.3%
same,Vasopressin Assay,[9],18.6 U/mL and 18.7 U/mL and 18.3 U/mL
same,Total Impurities,[10],10.6% and 10.3%
same,Vasopressin Assay,[10],17.3 U/mL and 17.6 U/mL and 17.4 U/mL
same,Total Impurities,[11],1.1% and 1.3%
same,Vasopressin Assay,[11],19.8 U/mL and 20.1 U/mL and 19.9 U/mL
same,Related Substances: Acetyl-AVP,"inverted, 40° C., 1 month",0.2%
same,Related Substances: Asp5-AVP,"inverted, 40° C., 1 month",0.2%
same,Related Substances: D-Asn-AVP,"inverted, 40° C., 1 month",0.4%
same,Related Substances: SEQ ID NO.: 2,"inverted, 40° C., 1 month",1.0%
same,Related Substances: SEQ ID NO.: 4,"inverted, 40° C., 1 month",1.1%
same,Related Substances: UI-0.13,"inverted, 40° C., 1 month",0.1%
same,Related Substances: UI-1.02-1.03,"inverted, 40° C., 1 month",0.3%
same,Related Substances: UI-1.56-1.57,"inverted, 40° C., 1 month",0.2%
same,Related Substances: UI-1.93,"inverted, 40° C., 1 month",0.1%
same,Related Substances: Acetyl-AVP,"inverted, 40° C., 2 months",0.2%
same,Related Substances: Asp5-AVP,"inverted, 40° C., 2 months",0.5%
same,Related Substances: D-Asn-AVP,"inverted, 40° C., 2 months",0.3%
same,Related Substances: SEQ ID NO.: 2,"inverted, 40° C., 2 months",2.4%
same,Related Substances: SEQ ID NO.: 4,"inverted, 40° C., 2 months",2.7%
same,Related Substances: UI-1.02-1.03,"inverted, 40° C., 2 months",0.2%
same,Related Substances: UI-1.56-1.57,"inverted, 40° C., 2 months",0.4%
same,Related Substances: UI-1.83-1.85,"inverted, 40° C., 2 months",0.2%
same,Related Substances: UI-1.87-1.88,"inverted, 40° C., 2 months",0.2%
same,Related Substances: UI-2.05-2.08,"inverted, 40° C., 2 months",0.2%
same,Related Substances: Acetyl-AVP,"inverted, 40° C., 3 months",0.2%
same,Related Substances: Asp5-AVP,"inverted, 40° C., 3 months",0.8%
same,Related Substances: D-Asn-AVP,"inverted, 40° C., 3 months",0.3%
same,Related Substances: SEQ ID NO.: 2,"inverted, 40° C., 3 months",3.8%
same,Related Substances: SEQ ID NO.: 4,"inverted, 40° C., 3 months",4.3%
same,Related Substances: UI-1.02-1.03,"inverted, 40° C., 3 months",0.3%
same,Related Substances: UI-1.18,"inverted, 40° C., 3 months",0.2%
same,Related Substances: UI-1.56-1.57,"inverted, 40° C., 3 months",0.4%
same,Related Substances: UI-1.83-1.85,"inverted, 40° C., 3 months",0.2%
same,Related Substances: UI-1.87-1.88,"inverted, 40° C., 3 months",0.2%
same,Related Substances: Acetyl-AVP,"inverted, 40° C., Initial",0.3%
same,Related Substances: D-Asn-AVP,"inverted, 40° C., Initial",0.3%
same,Related Substances: SEQ ID NO.: 2,"inverted, 40° C., Initial",0.1%
same,Related Substances: SEQ ID NO.: 4,"inverted, 40° C., Initial",0.1%
same,Related Substances: UI-1.02-1.03,"inverted, 40° C., Initial",0.2%
same,AVP Assay,[12],19.5 U/mL and 19.7 U/mL
same,Total Impurities,[12],2.1% and 1.8%
same,AVP Assay,[13],19.4 U/mL and 19.6 U/mL
same,Total Impurities,[13],2.1% and 2.2% and 2.0%
same,AVP Assay,[14],19.4 U/mL and 19.7 U/mL
same,Total Impurities,[14],2.3% and 2.2%
same,AVP Assay,[15],19.5 U/mL and 19.8 U/mL
same,Total Impurities,[15],2.1% and 2.2%
same,AVP Assay,[16],19.5 U/mL and 19.7 U/mL
same,Total Impurities,[16],2.3% and 2.1%
same,AVP Assay,[17],19.5 U/mL and 19.8 U/mL and 19.9 U/mL
same,Total Impurities,[17],2.5% and 2.6% and 2.4%
same,AVP Assay,[18],19.4 U/mL and 19.7 U/mL and 19.8 U/mL
same,Total Impurities,[18],2.9% and 2.8%
same,AVP Assay,[19],19.3 U/mL and 19.5 U/mL
same,Total Impurities,[19],2.9% and 2.8% and 2.7%
same,AVP Assay,[20],19.4 U/mL and 19.7 U/mL
same,Total Impurities,[20],2.3% and 2.7% and 2.2%
same,AVP Assay,[21],19.4 U/mL and 19.7 U/mL and 19.6 U/mL
same,Total Impurities,[21],2.4% and 2.5%
same,AVP Assay,[22],19.1 U/mL and 19.4 U/mL and 19.2 U/mL
same,Total Impurities,[22],3.2% and 3.3% and 3.7%
same,AVP Assay,[23],18.8 U/mL and 18.9 U/mL and 19 U/mL
same,Total Impurities,[23],4.8% and 4.5% and 4.7%
same,AVP Assay,[24],18.3 U/mL and 18.6 U/mL and 18.5 U/mL
same,Total Impurities,[24],5.6% and 5.7% and 5.9%
same,AVP Assay,"upright, 25° C. and 60% Relative Humidity, 18 months",18.1 U/mL
same,AVP Assay,[25],17.5 U/mL and 17.8 U/mL
same,Total Impurities,[25],9.2% and 9.1%
same,Total Impurities,"upright, 25° C. and 60% Relative Humidity, 24 months",13.3%
same,AVP Assay,[26],17.4 U/mL and 17.7 U/mL
same,Total Impurities,[26],13.1%
same,AVP Assay,[27],19.8 U/mL and 20.1 U/mL and 19.9 U/mL
same,Total Impurities,[27],1.1% and 1.3% and 1.5%
